From patent publication US11319347B2, “Peptide compound and method for producing same, composition for screening use, and method for selecting peptide compound” (FUJIFILM Corporation, priority 2017, dated 2022)
Starred links: 1 amine or outer side, 2 acyl side, 3 side chain; linkers in the order of their positions; H or OH if unused. Positions of bridges follow the written chain, without caps; N, C: chain ends. Non-standard residues stand in square brackets, D forms with d. Residues, ends and D or L forms follow the SMILES beside them. ξ: configuration not given here. Phe(3-(4R-CO-2-thiazolinyl)) = O=C([C@H](Cc1cccc(C2=N[C@H](C(=O)[*:3])CS2)c1)N[*:1])[*:2]; ξL = CC(C)CC(N)C(=O)O

How the values were obtained:
[1] = Metabolic stability of cyclic peptides in human liver microsomes (HLM residual rate); type: in vitro ADME; conditions: 1 μmol/L, human liver microsomes 0.5 mg protein/mL, 37° C., 20 minutes, NADPH and UDPGA
Description: Test of metabolic stability of cyclic peptide in human liver microsome
An experiment using human liver microsomes (HLMs) was carried out in order to compare and examine the metabolic stability of the synthesized cyclic peptides.
The compound with a final concentration of 1 μmol/L was incubated in human liver microsomes (BD Cat #452117) prepared to a final concentration of 0.5 mg protein/mL using 100 mmol/L phosphate buffer (pH 7.4) at 37° C. for 20 minutes in the presence of reduced nicotinamide adenine dinucleotide phosphate (NADPH) and uridine 5′-diphosphate-α-D-glucuronic acid (UDPGA). Deproteinization treatment with acetonitrile was carried out, the amount of unaltered substance remaining was quantified using LC/MS/MS, and the residual rate (%) in 20 minutes was calculated. The HLM residual rate (%) obtained by this method is described in the following table.
(§1) Evaluation standards are as follows.

[2] = Membrane permeability of synthesized cyclic peptides by PAMPA (Measurement Method A: 1 μmol/L; Method B: 10 μmol/L); type: in vitro ADME; conditions: 25° C., 4 hours
Description: Evaluation of membrane permeability of synthesized cyclic peptide by PAMPA method In order to compare and examine the membrane permeability of the synthesized cyclic peptide, parallel artificial membrane permeability assay (PAMPA) was carried out.
An artificial phospholipid membrane was produced by adding 5 μL of a phospholipid organic solvent solution consisting of L-α-phosphatidylcholine (Avanti Polar Lipids, Inc., Cat. 840051P, 1.67%), 1,2-dioleoyl-sn-glycero-3-phospho-L-serine (Avanti Polar Lipids, Inc., Cat. 840035P, 0.33%), and n-dodecane special grade (Wako Pure Chemical Industries, Ltd., 047-21612)/1-octanol reagent special grade (Kanto Chemical Co., Inc., Cat. 31013-08)=10:1 to Filter Plate (Merck Millipore Corporation, Cat. MAIPN4550).
475 μL of 50 mmol/L potassium phosphate buffer (KPB, pH 7.4 or pH 6.5) was added to 25 μL of a DMSO solution containing the compound at a concentration of 20 μmol/L, so that the compound was diluted to a final concentration of 1 μmol/L. 300 μL of the compound solution was added to the lower side (donor side) of PAMPA 96-well plate (Filter Plate (Merck Millipore Corporation, Cat. MAIPN4550)) with an artificial phospholipid membrane being interposed therebetween. 200 μL of 5% DMSO KPB (pH 7.4) was added to the upper side (acceptor side) with the artificial phospholipid membrane being interposed therebetween. A permeation test through an artificial phospholipid membrane was carried out at 25° C. for 4 hours. The compound concentration in the solution in the donor plate and the acceptor plate was measured by LC/MS/MS, and the membrane permeation rate (Pe) of the compound was calculated from the following formula, assuming that C0 is an initial compound concentration in donor solution, t is a test time, A is a membrane filter area=0.3 cm^2, VD is a donor solution amount=300 μL, VA is an acceptor solution amount=200 μL, and CD(t) is a compound concentration in donor solution at time t, CA(t) is a compound concentration in acceptor solution at time t, and Cequilibrium=[CD(t)*VD+CA(t)*VA]/(VD+VA).
475 μL of 50 mmol/L potassium phosphate buffer (KPB, pH 7.4 or pH 6.5) was added to 25 μL of a DMSO solution containing the compound at a concentration of […], so that the compound was diluted to a final concentration of 10 μmol/L. The compound solution was added 300 μL each to the lower side (donor side) of an artificial phospholipid membrane of PAMPA 96-well plate (Filter Plate (Merck Millipore Corporation, Cat. MAIPN4550)). 200 μL of 5% DMSO KPB (pH 7.4) was added to the upper side (acceptor side) with the artificial phospholipid membrane being interposed therebetween. A permeation test through an artificial phospholipid membrane was carried out at 25° C. for 4 hours. The compound concentration in the solution in the donor plate and the acceptor plate was measured by LC/MS/MS, and the membrane permeation rate (Pe) of the compound was calculated from the following formula, assuming that Co is an initial compound concentration in donor solution, t is a test time, A is a membrane filter area=0.3 cm^2, VD is a donor solution amount=300 μL, VA is an acceptor solution amount=200 μL, and CD(t) is a compound concentration in donor solution at time t, CA(t) is a compound concentration in acceptor solution at time t, and Cequilibrium=[CD(t)*VD+CA(t)*VA]/(VD+VA).
The membrane permeability (Pe(10^−6 cm/s)) obtained by this method is described in the following table.
as §1

[3] = Measurement method B (10 μmol/L)

Compound	Pe(10^−6 cm/sec) ([2]; Measurement method A)	also measured
N=C(N)NCCC[C@@H]1NC(=O)[C@H](Cc2c[nH]c3ccccc23)NC(=O)[C@@H](CC2CCCCC2)NC(=O)[C@@H]2CCCN2C(=O)[C@@H]2CSC(=N2)c2cc(ccn2)C[C@@H](C(N)=O)NC1=O [2-8]		HLM residual rate [1]: +++ (60%<HLM residual rate (%))
C[C@@H]1NC(=O)Cn2cc(nn2)C[C@@H](C(N)=O)NC(=O)[C@H](CCCNC(=N)N)NC(=O)[C@H](Cc2c[nH]c3ccccc23)NC(=O)[C@@H](CC2CCCCC2)NC(=O)[C@@H]2CCCN2C1=O [10-1]	+ (0.01<Pe (10^−6 cm/s)≤0.2)	
CC(C)C[C@@H]1NC(=O)[C@@H](C(C)C)NC(=O)[C@H](C)NC(=O)Cn2cc(nn2)C[C@@H](C(N)=O)NC(=O)[C@@H](CCC(=O)O)NC(=O)[C@@H](Cc2c[nH]c3ccccc23)NC1=O [10-3]	− (0.01≤Pe (10^−6 cm/s))	
C[C@@H]1NC(=O)Cn2cc(nn2)C[C@@H](C(N)=O)NC(=O)[C@H]([C@@H](C)O)NC(=O)[C@H](CCCCN)NC(=O)[C@@H](Cc2c[nH]c3ccccc23)NC(=O)[C@H](Cc2ccccc2)NC1=O [10-4]	− (0.01≤Pe (10^−6 cm/s))	
C[C@@]12CSC(=N1)c1cc(cs1)C[C@@H](C(N)=O)NC(=O)[C@H](CCCNC(=N)N)NC(=O)[C@H](Cc1c[nH]c3ccccc13)NC(=O)[C@@H](CC1CCCCC1)NC(=O)C1CCCN1C2=O (stereo partly shown) [a-1-1]	+++ (0.5<Pe (10^−6 cm/s))	
N=C(N)NCCC[C@@H]1NC(=O)[C@H](Cc2c[nH]c3ccccc23)NC(=O)[C@@H](CC2CCCCC2)NC(=O)[C@@H]2CCCN2C(=O)[C@@H]2CSC(=N2)c2cn(nn2)C[C@@H](C(N)=O)NC1=O [a-1-2]	++ (0.2<Pe (10^−6 cm/s)≤0.5)	
Cn1nc2c3cc(ccc31)C[C@@H](C(N)=O)NC(=O)[C@H](CCCNC(=N)N)NC(=O)[C@H](Cc1c[nH]c3ccccc13)NC(=O)[C@@H](CC1CCCCC1)NC(=O)[C@@H]1CCCN1C(=O)[C@@H]1CSC2=N1 [a-1-3]	+++ (0.5<Pe (10^−6 cm/s))	
Cn1ccc2cc3c(nc21)C1=N[C@@H](CS1)C(=O)N1CCC[C@H]1C(=O)N[C@H](CC1CCCCC1)C(=O)N[C@@H](Cc1c[nH]c2ccccc12)C(=O)N[C@@H](CCCNC(=N)N)C(=O)N[C@H](C(N)=O)C3 [a-1-4]	+++ (0.5<Pe (10^−6 cm/s))	
N=C(N)NCCC[C@@H]1NC(=O)[C@H](Cc2c[nH]c3ccccc23)NC(=O)[C@@H](CC2CCCCC2)NC(=O)[C@@H]2CCCN2C(=O)[C@@H]2CSC(=N2)c2cn(cn2)-c2ccc(cc2)C[C@@H](C(N)=O)NC1=O [a-1-5]		Pe(10^−6 cm/sec) [2, 3]: ++ (0.2<Pe (10^−6 cm/s)≤0.5)
N=C(N)NCCC[C@@H]1NC(=O)[C@H](Cc2c[nH]c3ccccc23)NC(=O)[C@@H](CC2CCCCC2)NC(=O)[C@@H]2CCCN2C(=O)[C@@H]2CSC(=N2)c2cc(on2)C[C@@H](C(N)=O)NC1=O [a-1-6]	+++ (0.5<Pe (10^−6 cm/s))	
N=C(N)NCCC[C@@H]1NC(=O)[C@H](Cc2c[nH]c3ccccc23)NC(=O)[C@@H](CC2CCCCC2)NC(=O)[C@@H]2CCCN2C(=O)[C@@H]2CSC(=N2)c2ccc(cn2)OCCOCCOCCOCCOc2ccc(cc2)C[C@@H](C(N)=O)NC1=O [a-1-8]	+++ (0.5<Pe (10^−6 cm/s))	
N=C(N)NCCC[C@@H]1NC(=O)[C@H](Cc2c[nH]c3ccccc23)NC(=O)[C@@H](CC2CCCCC2)NC(=O)[C@@H]2CCCN2C(=O)[C@@H]2CSC(=N2)c2ccc(s2)C(=O)NCCOCCOCCOCCOc2ccc(cc2)C[C@@H](C(N)=O)NC1=O [a-1-9]	+++ (0.5<Pe (10^−6 cm/s))	
N=C(N)NCCC[C@@H]1NC(=O)[C@H](Cc2c[nH]c3ccccc23)NC(=O)[C@@H](CC2CCCCC2)NC(=O)[C@@H]2CCCN2C(=O)[C@@H]2CSC(=N2)c2coc(n2)-c2csc(n2)C[C@@H](C(N)=O)NC1=O [a-1-10]	+++ (0.5<Pe (10^−6 cm/s))	
N=C(N)NCCC[C@@H]1NC(=O)[C@H](Cc2c[nH]c3ccccc23)NC(=O)[C@@H](CC2CCCCC2)NC(=O)[C@@H]2CCCN2C(=O)[C@@H]2CSC(=N2)c2csc(n2)-c2csc(n2)C[C@@H](C(N)=O)NC1=O [a-1-11]	+++ (0.5<Pe (10^−6 cm/s))	
N=C(N)NCCC[C@@H]1NC(=O)[C@H](Cc2c[nH]c3ccccc23)NC(=O)[C@@H](CC2CCCCC2)NC(=O)[C@@H]2CCCN2C(=O)[C@@H]2CSC(=N2)c2cn3c(cccc3n2)C[C@@H](C(N)=O)NC1=O [a-1-12]	+++ (0.5<Pe (10^−6 cm/s))	
N=C(N)NCCC[C@@H]1NC(=O)[C@H](Cc2c[nH]c3ccccc23)NC(=O)[C@@H](CC2CCCCC2)NC(=O)[C@@H]2CCCN2C(=O)[C@@H]2CSC(=N2)c2cn3cc(ncc3n2)-c2cccc(c2)C[C@@H](C(N)=O)NC1=O [a-1-14]		Pe(10^−6 cm/sec) [2, 3]: +++ (0.5<Pe (10^−6 cm/s))
N=C(N)NCCC[C@@H]1NC(=O)[C@H](Cc2c[nH]c3ccccc23)NC(=O)[C@@H](CC2CCCCC2)NC(=O)[C@@H]2CCCN2C(=O)[C@@H]2CSC(=N2)c2cn3nc(ccc3n2)-c2cccc(c2)C[C@@H](C(N)=O)NC1=O [a-1-15]		Pe(10^−6 cm/sec) [2, 3]: ++ (0.2<Pe (10^−6 cm/s)≤0.5)
N=C(N)NCCC[C@@H]1NC(=O)[C@H](Cc2c[nH]c3ccccc23)NC(=O)[C@@H](CC2CCCCC2)NC(=O)[C@@H]2CCCN2C(=O)[C@@H]2CSC(=N2)c2cn3cc(cnc3n2)-c2cccc(c2)C[C@@H](C(N)=O)NC1=O [a-1-16]		Pe(10^−6 cm/sec) [2, 3]: ++ (0.2<Pe (10^−6 cm/s)≤0.5)
N=C(N)NCCC[C@@H]1NC(=O)[C@H](Cc2c[nH]c3ccccc23)NC(=O)[C@@H](CC2CCCCC2)NC(=O)[C@@H]2CCCN2C(=O)[C@@H]2CSC(=N2)c2ccc(cc2)[C@@H](C(N)=O)NC1=O [a-1-19]	+++ (0.5<Pe (10^−6 cm/s))	
CC(C)C[C@@H]1NC(=O)[C@@H]2CSC(=N2)c2cccc(c2)C[C@@H](C(N)=O)NC(=O)[C@H](CC(C)C)NC(=O)[C@H](C)NC(=O)[C@H](Cc2ccccc2)NC(=O)[C@H](C)NC(=O)[C@@H]2CCCN2C(=O)[C@H](C)NC(=O)[C@H](CC(C)C)NC(=O)[C@H](CC(C)C)NC(=O)[C@@H]2CCCN2C(=O)[C@H](CC(C)C)NC(=O)[C@H](CCCNC(=N)N)NC(=O)[C@H](CC(C)C)NC1=O [a-3-1] (LLRLPLLAPAFAL[Phe(3-(4R-CO-2-thiazolinyl))]-NH2; lactam N-14)		Pe(10^−6 cm/sec) [2, 3]: +++ (0.5<Pe (10^−6 cm/s))
CC(C)C[C@@H]1NC(=O)[C@@H]2CSC(=N2)c2cccc(c2)C[C@@H](C(=O)N[C@@H](C)C(=O)N[C@@H](CC(C)C)C(=O)N[C@@H](Cc2ccccc2)C(=O)N[C@@H](CC(C)C)C(=O)N[C@@H](C)C(N)=O)NC(=O)[C@@H]2CCCN2C(=O)[C@H](CCCCN)NC1=O [a-3-2] (LKP[Phe(3-(4R-CO-2-thiazolinyl))]ALFLA-NH2; lactam N-4)	++ (0.2<Pe (10^−6 cm/s)≤0.5)	
CC(=O)N[C@H]1CCCCNC(=O)[C@@H]2CSC(=N2)c2cccc(c2)C[C@@H](C(N)=O)NC(=O)[C@H](C)NC(=O)C(CC(C)C)NC(=O)[C@H](CCCCN)NC(=O)[C@H](CC(C)C)NC(=O)[C@H](C)NC(=O)[C@H](CC(C)C)NC1=O (stereo partly drawn) [a-4-1] (Ac-KLALK[ξL]A[Phe(3-(4R-CO-2-thiazolinyl))]-NH2; lactam 1-8)		Pe(10^−6 cm/sec) [2, 3]: + (0.01<Pe (10^−6 cm/s)≤0.2)
